melting point [°C] | Compound
135 to 143 | CCn1cc(C(=O)O)c(=O)c2cc(F)c(N3CCN(C(=O)OC(OC(=O)c4ccccc4)C(=O)OC(C)C)CC3)cc21 (configuration not stated)
265 to 267 | Cn1cc(-c2ccccc2)c(=O)c(-c2cccc(C(=O)O)c2)c1
150 to 152 | CCOc1ccccc1CNc1c(C#N)ccnc1C(N)=O
225 | COc1cc2c(cc1-c1ccc(F)cc1C)NC(=O)CC(c1cccc(-n3ccnc3)c1)=N2
211 | CCCCc1nc(SC)c(C(=O)OCC)n1Cc1ccc(-c2ccc(S(=O)(=O)NC#N)cc2C)cc1
217 to 218 | C1=Cn2cnnc2C(c2ccccc2)c2ccccc21 (configuration not stated)
105 to 112 | N#Cc1cccc(C2SC[C@@H](C(=O)O)N2C(=O)CCCCCC(=O)N2C(c3cccc(C#N)c3)SC[C@H]2C(=O)O)c1 (some centres not stated)
245 to 247 | N=C(Nc1ccc(C(=O)O)cc1)Nc1nc(-c2ccccc2)cs1
168 | O=C1C(c2ccccc2)=C2CCCCC2N1c1ccc(O)cc1 (configuration not stated)
200 to 202 | COCOc1ccc(-c2ncc3ncc(N4CCNCC4=O)cc3n2)cc1
228 | N#CC1=C(C2CCN(C(=O)c3ccccc3)CC2)Nc2n[nH]cc2C1c1cccc2nonc12 (configuration not stated)
192 to 193 | COc1ccc(CC(Br)C(N)=O)cc1C(=O)NCc1ccc(C(F)(F)F)cc1 (configuration not stated)
98 to 103 | CCOC(=O)CN(c1ccc(N)cc1)S(=O)(=O)c1cccc2ccccc12
140 to 141 | Cc1sc(N)c(C(=O)c2ccc(Cl)cc2)c1CN1CCN(c2cccc(F)c2)CC1
235 to 237 | CNC(=O)c1ccccc1Nc1nc(Nc2cc3c(cc2OC)N(C)C(=O)OCC3)ncc1Cl
174 to 176 | O=c1c2cccnc2c(-c2ccccc2)nn1-c1ccccc1
68 to 69 | c1ccc(COc2ccc(CCCCn3cncn3)cc2)cc1
194 to 195 | CS(=O)(=O)Nc1cc(NC(=O)CCl)c([N+](=O)[O-])cc1Oc1ccccc1
188 to 190 | CCOC(=O)COc1ccccc1-c1cc(C#N)c(=O)[nH]c1C
167 to 169 | CC(=O)OC1CSC(Oc2cncc(-c3ccc(F)nc3)c2)C(OC(C)=O)C1OC(C)=O (configuration not stated)
169 to 172 | CN(Cc1ccc(S(C)(=O)=O)cc1)S(=O)(=O)c1cn(S(=O)(=O)N(C)C)c(C#N)n1
169 to 171 | O=C(c1ccccc1SSc1ccccc1C(=O)N1CCC(CO)C1)N1CCC(CO)C1 (configuration not stated)
92 to 96 | CC(C)CC(C=O)NC(=O)C(Cc1c[nH]cn1)NC(=O)C(CC=Cc1ccccc1)Cc1cccc2ccccc12 (configuration not stated)
196 to 198 | CC(=O)NC(=NNNc1ccccc1[N+](=O)[O-])c1ccccc1Cl
260 to 261 | COc1cc(CCC(=O)Nc2nc3ccccc3s2)ccc1C(=O)/C=C/C(=O)O
227 to 229 | CN(CCOc1ccc(C=C2SC(=O)NC2=O)cc1)c1nc2ccccc2o1
80 to 95 | COC1(C)c2ccc(C#Cc3cc(Cl)ccc3OCC(=O)O)cc2S(=O)(=O)C1(C)C (configuration not stated)
93 to 94 | CC(C)(C)OC(=O)N[C@@H](CC(=O)OCc1ccccc1)C(=O)N[C@@H](Cc1ccccc1)C(=O)OCc1ccccc1
154 to 156 | O=C1[C@H]2CCC[C@H]2N(C(=O)CCl)c2ccccc2N1Cc1ccccc1 (relative stereo)

The remaining lines, values behind:

Compound | melting point [°C]
COC(Nc1ccccc1)(OC)c1ccnc(C(=O)c2ccc(Cl)cc2)c1 | 137 to 138
Fc1cc(F)c(-c2c(Cl)nc(-n3ccnc3)nc2NCC(F)(F)F)c(F)c1 | 168 to 170
CC(=O)NCc1ccc(C(C)Cl)cc1 (configuration not stated) | 58 to 62
O=CNC(=O)N1CC(Oc2cccc(C(F)(F)F)c2)C1 | 118 to 119
Clc1cc(N2CCNCC2)nc(N2CCCC2)n1 | 89 to 100
COc1ccc(-c2ccc3c(c2)C=C(C(=O)Nc2ccc(CN(C)C4CCOCC4)cc2)CCS3(=O)=O)c(OC)c1 | 175 to 178
Cc1cccc(C)c1C(=Nc1ccc(F)cc1)NC(=NC1CCCCC1)N1CCCCC1C (configuration not stated) | 167 to 168
Nc1nc(N)c2cc(S(=O)(=O)c3ccc(Cl)c(Cl)c3)ccc2n1 | 286 to 289
Cc1cccc(-c2[nH]c(C(C)C)nc2-c2cccc(-c3ccccn3)c2)n1 | 97 to 100
C(=Cc1ccc2nc(-c3ccccc3)oc2c1)c1ccc(-c2nc3ccccc3o2)cc1 | 233 to 237
Cc1cc(C)cc(-c2ccc3c(c2)CC[C@H]2N(C)C(=O)CC[C@]32C)c1 | 129 to 130
CN(C)C=Cc1cc(Cl)c([N+](=O)[O-])cc1Cl | 173 to 175
C[C@]1(CN2CCN(N=Cc3cc4cc(C(F)(F)F)ccc4o3)CC2)Cn2cc([N+](=O)[O-])nc2O1 | 190 to 192
CSC(=O)c1c(C(F)F)nc(C(F)(F)F)c(C(=O)SC)c1NC1CC1 | 85 to 86
CC(=O)N1CCN(c2c([N+](=O)[O-])cc([N+](=O)[O-])cc2C(F)(F)F)CC1 | 126
COC(=O)[C@@H]1CSC(=O)N1CC(C)(C)SCc1ccc(OC)cc1 | 51 to 54
COc1ccc(NC(=S)NCCO)c(C)c1 | 171 to 174
O=c1cc(NCCN2CCN(c3ncccn3)CC2)cn[nH]1 | 199 to 201
CCOC(=O)C(C)CNc1c(C#N)cnn1-c1c(F)c(F)c(CC)c(F)c1F (configuration not stated) | 76 to 78

Compound | melting point [°C]
NS(=O)(=O)Oc1ccc([N+](=O)[O-])c(C(F)(F)F)c1 | 95 to 97
CCNC(=O)c1c(C)cccc1C(C)(C)C | 110 to 112
CCCC(=O)N1N=C(c2ccc(N)cc2)c2cc(Cl)c(Cl)cc2CC1C (configuration not stated) | 193 to 194
COc1cc2c(=O)n(C(C)CN(C)C)c3c4cc5c(cc4ncc3c2cc1OC)OCO5 (configuration not stated) | 186 to 187
Brc1n[nH]c2ccccc12 | 136
COC(=O)c1cc(N2C(=O)C3C4CC4CN3C2=O)c(F)cc1Cl (configuration not stated) | 59 to 62
Cc1cc([N+](=O)[O-])c(NCC(C)O)c([N+](=O)[O-])c1 (configuration not stated) | 80
CC1(C)CC(=O)c2c(Sc3ccccc3)sc(C(=O)N3CCCC3)c2C1 | 140
Cc1nc2ccccc2n2cnc(-c3noc(C4CC4)n3)c12 | 165 to 167
CN(C)C=NS(=O)(=O)CCC(C)(C)CCI | 105 to 106
COc1cc(-c2nc3ccc(OCCN4CCOCC4)cc3n2Cc2ccccc2C(F)(F)F)cc(OC)c1OC | 175
CCOC(=O)c1cn(-c2nc(N)c(F)cc2F)c2c(Cl)c(NCC(O)COC3CNC3)c(F)cc2c1=O (configuration not stated) | 148 to 152
CC(C)(C)CNC(=O)C1=C(C(=O)Nc2cc(OC3CCCC3)c(Cl)cc2F)CCCC1 | 173 to 175
CC(C)N(C(=O)CC(C#N)(CCN1CCCCC1)c1ccccc1Cl)C(C)C (configuration not stated) | 83 to 85
CC(C)COC(=O)C(C#N)=CNCCc1ccco1 | 42 to 44
CC(C)c1c(C=O)c(-c2ccccc2)c2c3ccccc3ccn12 | 134 to 136
CC1(C)CC1C(=O)Nc1ccc(C2=NNC(=O)CC2)cc1 (configuration not stated) | 213 to 214
CCCCCCCCCCCC=CC(O)C(COC1OC(CO)C(O)C(O)C1O)NC(=O)CCCCCCCCCCCCCCC (configuration not stated) | 207 to 209
S=C=NCc1cc(-c2ccccc2)no1 | 66

From a melting point compilation (Tetko et al.; mined from patent text by program, amines drawn as free bases though some values may be those of a salt)
